The text below walks through data of patent US20260365670A1, “EGFR INHIBITORS AND USES THEREOF” (DIZAL (JIANGSU) PHARMACEUTICAL CO., LTD., priority 2022, published 2026).

Test [1] addresses T1, EGFR[T790M/C797S/d746-750] (Homo sapiens, UniProt P00533, C797S/DEL746-750/T790M).
T1 construct: purchased Carna Bio
Nature of the test: Inhibition of EGFR[T790M/C797S/d746-750] biochemical enzymatic activity (HTRF). The settings on record: 1 mM ATP, 1 h at room temperature. The procedure, abridged:
(§1)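 1 mM ATP, 1 μM biotin-TK peptide, 5 mM MgCl2, 1 mM MnCl2, 0.01% CHAPS, 1 mM DTT, 0.5% DMSO; 1 h RT; EDTA stop; HTRF 665/615 nm; IC50 via 4PL.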

The target of the next test is T2, EGFR wild type (Homo sapiens, UniProt P00533).
T2 construct: purchased Carna Bio
Nature of the test: Inhibition of EGFR wild type biochemical enzymatic activity (HTRF). The settings on record: EGFR wild type, 1 mM ATP, 1 h at room temperature. The gist of the method: as §1

Another test relates to A-431. The test is described as follows: Cell proliferation assay, A-431 cells (GI50, Table 6). Format: cell-based. The following applies: Homo sapiens, A-431, A-431 cells.
Another test concerns the target T3, EGFR Exon19Del/T790M (Homo sapiens, UniProt P00533, DEL746-750/T790M).
T3 construct: purchased Carna Bio
The test is described as follows: Inhibition of EGFR Exon19Del/T790M biochemical enzymatic activity (HTRF). The settings on record: EGFR Exon19Del/T790M, 1 mM ATP, 1 h at room temperature. The gist of the method:
as §1

Another test has as its target T4, EGFR L858R/T790M (Homo sapiens, UniProt P00533, L858R/T790M).
T4 construct: purchased Carna Bio
The test is described as follows: Inhibition of EGFR L858R/T790M biochemical enzymatic activity (HTRF). The following applies: EGFR L858R/T790M, 1 mM ATP, 1 h at room temperature. The procedure, abridged: as §1

The target of the next test is T5, EGFR (C797S L858R) (Homo sapiens, UniProt P00533, C797S/L858R).
T5 construct: purchased signalchem
The test is described as follows: Inhibition of EGFR (C797S L858R) biochemical enzymatic activity (HTRF). The following applies: EGFR (C797S L858R), 1 mM ATP, 1 h at room temperature. The procedure, abridged:
as §1

For a further test, the target named is T6, EGFR (d746-750 C797S) (Homo sapiens, UniProt P00533, C797S/DEL746-750).
T6 construct: purchased signalchem
The test is described as follows: Inhibition of EGFR (d746-750 C797S) biochemical enzymatic activity (HTRF). The settings on record: EGFR (d746-750 C797S), 1 mM ATP, 1 h at room temperature. The procedure, abridged:
as §1

The target in a further test is T7, EGFR L858R (Homo sapiens, UniProt P00533, L858R).
T7 construct: purchased Carna Bio
Nature of the test: Inhibition of EGFR L858R biochemical enzymatic activity (HTRF). The following applies: 1 mM ATP, 1 h at room temperature. The procedure, abridged:
as §1

A further test relates to PC-9. Nature of the test: Cell proliferation assay, PC-9 cells (CellTiter-Glo, 72 hours). Type of test: cell-based. The settings on record: Homo sapiens, PC-9, 72 h, PC9 cells, read-out: GI50 PC9. The procedure, abridged: (§2)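 Ba/F3 cells carrying EGFR mutants (5000/well) or PC-9 cells (500/well) in RPMI1640 were dosed with compound series after overnight attachment and grown 72 h. Viability read by CellTiter-Glo, with day-0 counts subtracted; GI50 from curve fits of % proliferation versus DMSO control.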

The target of a further test is T8, EGFR Exon19Del (Homo sapiens, UniProt P00533, DEL746-750).
T8 construct: purchased Carna Bio
Nature of the test: Inhibition of EGFR Exon19Del biochemical enzymatic activity (HTRF). The following applies: 1 mM ATP, 1 h at room temperature. The procedure, abridged:
as §1

Another test addresses T9, EGFR[T790M/C797S/L858R] (Homo sapiens, UniProt P00533, C797S/L858R/T790M).
T9 construct: purchased Carna Bio
The test is described as follows: Inhibition of EGFR[T790M/C797S/L858R] biochemical enzymatic activity (HTRF). The settings on record: EGFR[T790M/C797S/L858R], 1 mM ATP, 1 h at room temperature. The procedure, abridged: as §1

In test [2] the test system is Ba/F3 cells expressing EGFR mutations. The test is described as follows: Cell proliferation assay, Ba/F3 cells expressing EGFR mutations (CellTiter-Glo, 72 hours). The settings on record: Mus musculus, BaF3, 72 h. Type of test: cell-based. The gist of the method:
as §2

[3] abbreviates: BaF3 cells, EGFR DEL19 - C797S, read-out: GI50 DEL19 - C797S/BaF3.
The mark [4] stands for this setting: BaF3 cells, EGFR DEL19 - T790-C797S, read-out: GI50 DEL19 - T790-C797S/BaF3.
Where [5] appears, read: BaF3 cells, EGFR L858R - C797S, read-out: GI50 L858R - C797S/BaF3.
The mark [6] stands for this setting: BaF3 cells, EGFR L858R - T790-C797S, read-out: GI50 L858R - T790-C797S/BaF3.
Where [7] appears, read: BaF3 cells, EGFR L858R - T790M, read-out: GI50 L858R - T790M/BaF3.
Setting [8] is: BaF3 cells, EGFR L858R, read-out: GI50 L858R/BaF3.
Where [9] appears, read: EGFR DEL19 - T790M, read-out: GI50 DEL19 - T790M.

Where two headings read alike, the source gives them in different places. Some results are limits rather than exact numbers.

T4 sequence (P00533 25-1210 T790M/L858R): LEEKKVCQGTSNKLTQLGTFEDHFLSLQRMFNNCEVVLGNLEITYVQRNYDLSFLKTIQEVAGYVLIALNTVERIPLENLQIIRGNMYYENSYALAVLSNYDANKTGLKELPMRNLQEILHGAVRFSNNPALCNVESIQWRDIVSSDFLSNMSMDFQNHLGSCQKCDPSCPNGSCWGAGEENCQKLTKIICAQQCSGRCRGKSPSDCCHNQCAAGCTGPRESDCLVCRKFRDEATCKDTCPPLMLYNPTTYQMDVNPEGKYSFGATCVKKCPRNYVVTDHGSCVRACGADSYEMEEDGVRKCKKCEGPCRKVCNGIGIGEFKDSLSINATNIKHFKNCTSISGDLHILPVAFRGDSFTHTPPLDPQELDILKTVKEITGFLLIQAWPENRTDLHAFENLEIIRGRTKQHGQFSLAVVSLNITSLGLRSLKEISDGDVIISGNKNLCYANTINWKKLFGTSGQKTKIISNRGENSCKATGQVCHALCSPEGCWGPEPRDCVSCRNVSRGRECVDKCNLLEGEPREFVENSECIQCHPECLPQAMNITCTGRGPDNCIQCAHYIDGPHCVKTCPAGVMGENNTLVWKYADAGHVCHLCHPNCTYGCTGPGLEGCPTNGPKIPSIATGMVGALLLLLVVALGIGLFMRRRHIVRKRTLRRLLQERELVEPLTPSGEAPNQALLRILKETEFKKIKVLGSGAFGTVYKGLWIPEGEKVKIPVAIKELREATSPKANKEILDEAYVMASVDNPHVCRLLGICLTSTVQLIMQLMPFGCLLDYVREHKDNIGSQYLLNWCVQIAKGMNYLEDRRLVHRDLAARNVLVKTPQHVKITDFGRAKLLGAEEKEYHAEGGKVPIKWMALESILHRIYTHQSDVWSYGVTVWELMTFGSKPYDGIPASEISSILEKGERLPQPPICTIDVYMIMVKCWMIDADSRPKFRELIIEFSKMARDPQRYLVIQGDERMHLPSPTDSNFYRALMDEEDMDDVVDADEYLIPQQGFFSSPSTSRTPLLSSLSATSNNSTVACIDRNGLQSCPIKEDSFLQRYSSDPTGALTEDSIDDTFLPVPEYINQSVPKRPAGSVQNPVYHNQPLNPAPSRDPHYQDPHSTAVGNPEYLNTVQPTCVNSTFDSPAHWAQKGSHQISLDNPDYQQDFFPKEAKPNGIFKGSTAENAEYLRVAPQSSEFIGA
T6 sequence (P00533 with tags, fused parts or gaps DEL746-750/C797S limits assumed): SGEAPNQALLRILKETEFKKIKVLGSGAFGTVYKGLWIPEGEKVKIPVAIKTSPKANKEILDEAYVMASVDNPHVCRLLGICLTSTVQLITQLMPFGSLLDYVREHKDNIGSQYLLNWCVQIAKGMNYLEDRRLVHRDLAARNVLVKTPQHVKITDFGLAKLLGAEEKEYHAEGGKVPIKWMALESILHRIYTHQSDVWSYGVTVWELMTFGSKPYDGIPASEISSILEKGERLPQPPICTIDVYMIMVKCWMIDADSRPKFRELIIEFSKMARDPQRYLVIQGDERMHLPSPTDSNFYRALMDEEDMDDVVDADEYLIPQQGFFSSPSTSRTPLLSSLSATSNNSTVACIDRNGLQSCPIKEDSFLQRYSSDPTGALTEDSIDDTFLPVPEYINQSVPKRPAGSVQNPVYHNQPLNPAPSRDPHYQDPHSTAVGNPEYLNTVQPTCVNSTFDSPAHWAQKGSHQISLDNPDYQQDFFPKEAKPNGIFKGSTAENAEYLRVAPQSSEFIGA
T5 sequence (P00533 25-1210 C797S/L858R): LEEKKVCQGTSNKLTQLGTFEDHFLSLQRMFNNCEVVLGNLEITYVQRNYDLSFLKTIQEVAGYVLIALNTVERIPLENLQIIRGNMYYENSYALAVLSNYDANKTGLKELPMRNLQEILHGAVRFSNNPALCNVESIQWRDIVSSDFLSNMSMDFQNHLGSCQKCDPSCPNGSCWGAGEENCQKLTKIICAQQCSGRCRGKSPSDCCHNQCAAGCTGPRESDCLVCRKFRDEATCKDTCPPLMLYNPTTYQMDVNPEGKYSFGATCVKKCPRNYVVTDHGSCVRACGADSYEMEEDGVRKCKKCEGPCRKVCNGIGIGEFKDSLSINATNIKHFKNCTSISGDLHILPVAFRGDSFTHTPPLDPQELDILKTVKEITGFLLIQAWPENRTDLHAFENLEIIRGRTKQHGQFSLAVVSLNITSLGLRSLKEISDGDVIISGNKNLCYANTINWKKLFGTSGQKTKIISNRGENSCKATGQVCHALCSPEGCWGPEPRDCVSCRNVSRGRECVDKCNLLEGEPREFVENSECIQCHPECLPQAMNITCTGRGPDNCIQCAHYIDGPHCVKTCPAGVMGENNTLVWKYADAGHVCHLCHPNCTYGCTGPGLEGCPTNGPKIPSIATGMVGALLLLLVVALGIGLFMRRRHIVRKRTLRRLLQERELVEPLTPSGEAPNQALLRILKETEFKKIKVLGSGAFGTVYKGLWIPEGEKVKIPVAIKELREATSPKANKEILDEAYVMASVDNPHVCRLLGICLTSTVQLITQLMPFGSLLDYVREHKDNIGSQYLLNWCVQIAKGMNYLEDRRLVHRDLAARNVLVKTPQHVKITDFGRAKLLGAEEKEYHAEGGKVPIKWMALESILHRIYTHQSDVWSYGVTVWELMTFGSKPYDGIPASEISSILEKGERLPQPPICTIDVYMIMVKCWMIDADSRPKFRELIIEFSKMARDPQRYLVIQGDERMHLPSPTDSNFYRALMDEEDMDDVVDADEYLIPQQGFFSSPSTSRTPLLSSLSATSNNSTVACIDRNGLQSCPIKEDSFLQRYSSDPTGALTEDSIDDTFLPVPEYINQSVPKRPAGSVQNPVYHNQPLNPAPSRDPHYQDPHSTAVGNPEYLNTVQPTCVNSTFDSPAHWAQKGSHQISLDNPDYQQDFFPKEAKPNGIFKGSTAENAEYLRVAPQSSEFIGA
T2 sequence (P00533 25-1210): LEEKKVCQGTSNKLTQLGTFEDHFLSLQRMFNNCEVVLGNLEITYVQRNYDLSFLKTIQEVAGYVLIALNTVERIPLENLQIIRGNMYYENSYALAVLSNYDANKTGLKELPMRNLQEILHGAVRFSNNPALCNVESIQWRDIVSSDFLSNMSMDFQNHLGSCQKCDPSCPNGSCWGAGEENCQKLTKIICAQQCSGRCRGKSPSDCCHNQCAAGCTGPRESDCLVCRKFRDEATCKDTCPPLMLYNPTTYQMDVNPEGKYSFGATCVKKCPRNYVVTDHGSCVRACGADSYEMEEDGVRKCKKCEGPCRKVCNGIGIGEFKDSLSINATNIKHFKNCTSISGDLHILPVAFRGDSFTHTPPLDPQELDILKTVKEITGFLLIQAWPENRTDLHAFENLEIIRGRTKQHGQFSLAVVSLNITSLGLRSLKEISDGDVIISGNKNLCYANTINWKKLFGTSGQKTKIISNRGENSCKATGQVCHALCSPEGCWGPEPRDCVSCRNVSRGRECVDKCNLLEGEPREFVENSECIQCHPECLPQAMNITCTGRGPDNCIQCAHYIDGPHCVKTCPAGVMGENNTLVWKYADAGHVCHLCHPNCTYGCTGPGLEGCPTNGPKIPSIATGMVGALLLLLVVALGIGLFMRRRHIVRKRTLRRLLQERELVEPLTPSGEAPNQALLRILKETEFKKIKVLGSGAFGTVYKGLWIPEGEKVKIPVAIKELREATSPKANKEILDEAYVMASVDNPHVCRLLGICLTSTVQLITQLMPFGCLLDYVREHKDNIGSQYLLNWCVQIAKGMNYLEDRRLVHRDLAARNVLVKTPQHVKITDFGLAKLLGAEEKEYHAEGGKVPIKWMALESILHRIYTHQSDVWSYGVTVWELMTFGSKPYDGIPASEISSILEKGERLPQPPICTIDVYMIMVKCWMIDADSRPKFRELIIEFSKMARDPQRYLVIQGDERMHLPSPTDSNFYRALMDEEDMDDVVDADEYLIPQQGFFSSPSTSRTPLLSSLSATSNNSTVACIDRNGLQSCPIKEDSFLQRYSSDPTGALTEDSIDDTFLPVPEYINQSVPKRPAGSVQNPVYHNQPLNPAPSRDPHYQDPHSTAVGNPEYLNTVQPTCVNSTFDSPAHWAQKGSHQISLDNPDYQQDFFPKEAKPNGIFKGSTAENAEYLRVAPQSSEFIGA
T1 sequence (P00533 with tags, fused parts or gaps DEL746-750/T790M/C797S limits assumed): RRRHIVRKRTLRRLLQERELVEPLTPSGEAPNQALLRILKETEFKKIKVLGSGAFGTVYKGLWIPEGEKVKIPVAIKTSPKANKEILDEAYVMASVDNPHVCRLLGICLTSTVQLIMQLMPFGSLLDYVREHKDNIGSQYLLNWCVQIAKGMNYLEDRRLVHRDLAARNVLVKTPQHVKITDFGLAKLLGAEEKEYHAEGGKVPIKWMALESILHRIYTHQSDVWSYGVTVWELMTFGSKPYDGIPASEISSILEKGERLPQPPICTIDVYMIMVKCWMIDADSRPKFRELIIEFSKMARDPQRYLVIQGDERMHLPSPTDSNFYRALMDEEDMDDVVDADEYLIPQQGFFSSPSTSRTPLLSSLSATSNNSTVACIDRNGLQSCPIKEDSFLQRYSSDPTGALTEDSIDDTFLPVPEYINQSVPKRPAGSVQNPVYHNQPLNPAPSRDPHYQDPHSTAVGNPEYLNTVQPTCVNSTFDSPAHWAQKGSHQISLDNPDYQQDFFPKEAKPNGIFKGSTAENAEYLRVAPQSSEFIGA

For `Cc1cc2cc(n1)-c1cnn(C)c1OCCN1CC3CCC(CC3)(C1)n1c(nc3ccc(N4CCC(N(C)C)CC4)cc31)NC2=O` [Example B27, 5-[4-(dimethylamino)piperidin-1-yl]-15,21-dimethyl-23-oxa-2,9,11,16,20,21,26-heptaazaheptacyclo[26.2.2.1^{1,26}.1^{13,17}.0^{2,10}.0^{3,8}.0^{18,22}]tetratriaconta-3,5,7,9,13,15,17(34),18(22),19-nonaen-12-one], the IC50 in test [1] (IC50 @T790M - C797S - Del19, EGFR[T790M/C797S/d746-750]) came out at 3.1 nM; on EGFR wild type (IC50 @WT) it was 3540 nM; on EGFR Exon19Del/T790M (IC50 @Del19-T790M), 8.3 nM; against EGFR L858R/T790M (IC50 @L858R-T790M) it was 8.3 nM; against EGFR (C797S L858R) (IC50 @L858-C797S), 30 nM; against EGFR (d746-750 C797S) (IC50 @Del19-C797S), 6.3 nM. Further, the IC50 against EGFR L858R (IC50 @L858R) is 67 nM; at EGFR Exon19Del (IC50 @Del19, EGFR Exon19Del), 11 nM; on EGFR[T790M/C797S/L858R] (IC50 @T790M- C797S - L858R), 3.8 nM. Besides, the GI50 was 3600 nM in the test with A-431; 19 nM with PC-9; 2 nM in test [2] (setting [3]); 2 nM in [2] (setting [4]); 22 nM in test [2] (setting [5]); 2 nM in test [2] (setting [6]). In addition, the GI50 in test [2] (setting [7]) stood at 5 nM; in test [2] (setting [8]) it was 17 nM; in [2] (setting [9]), 2 nM.
Consider `Cc1cc2cc(n1)-c1cnn(C)c1OCCN1CC3CCC(C3)(C1)n1c(nc3ccccc31)NC2=O` (stereo not drawn) [Example B8B, 15,21-dimethyl-23-oxa-2,9,11,16,20,21,26-heptaazaheptacyclo[24.4.1.1^{1,28}.1^{13,17}.0^{2,10}.0^{3,8}.0^{18,22}]tritriaconta-3,5,7,9,13,15,17(33),18(22),19-nonaen-12-one], for which the IC50 was 0.98 nM in test [1] (EGFR[T790M/C797S/d746-750], read-out: IC50 @T790M - C797S - Del19); greater than 5000 nM at EGFR wild type (read-out: IC50 @WT); 0.95 nM on EGFR Exon19Del/T790M (read-out: IC50 @Del19-T790M); 1.3 nM at EGFR L858R/T790M (read-out: IC50 @L858R-T790M); 200 nM at EGFR (C797S L858R) (read-out: IC50 @L858-C797S); 4.2 nM on EGFR (d746-750 C797S) (read-out: IC50 @Del19-C797S). Also, the IC50 on EGFR L858R (read-out: IC50 @L858R) amounted to 469 nM; on EGFR Exon19Del (EGFR Exon19Del, read-out: IC50 @Del19), 14 nM; at EGFR[T790M/C797S/L858R] (read-out: IC50 @T790M- C797S - L858R) it was 1 nM. The GI50 in the test on A-431 is 2710 nM; in the test on PC-9, 63 nM; in test [2] (setting [3]) it was 4.8 nM; in test [2] (setting [4]) it was 2.1 nM; in [2] (setting [5]), 53 nM; in test [2] (setting [6]), 2.4 nM. Also, the GI50 in test [2] (setting [7]) stood at 8.6 nM; in test [2] (setting [8]), 72 nM; in test [2] (setting [9]) it was 2.6 nM.
